Source: DBAASP
Converted amounts (≈) assume the structure as drawn. Blank lines part the entries; values can stand above or below the compound they belong to.

What was measured:
Test in all cases: ≥ marks a high value that may be exact or a test limit, other limits are often not marked, values filed in µg/mL are converted to µM
[1] = system: Aspergillus flavus KCTC 9471
[2] = system: Aspergillus fumigatus KCTC 6145
[3] = system: Bacillus subtilis
[4] = system: Botrytis cinerea
[5] = system: Candida albicans KCTC 7270
[6] = system: Escherichia coli O157:H7 ATCC 43895
[7] = system: Escherichia coli
[8] = system: Fusarium verticillioides
[9] = system: Listeria monocytogenes KCTC 3710
[10] = system: Proteus vulgaris
[11] = system: Pseudomonas aeruginosa
[12] = system: Saccharomyces cerevisiae
[13] = system: Salmonella typhimurium
[14] = system: Staphylococcus aureus
[15] = system: Staphylococcus epidermidis
[16] = system: Trichosporon beigelii
[17] = system: Acinetobacter baumannii ATCC 19606
[18] = system: Acinetobacter baumannii
[19] = system: Bacillus subtilis ATCC 6051
[20] = system: Candida albicans ATCC 90028
[21] = system: Cryptococcus neoformans ATCC 208821
[22] = system: Escherichia coli ATCC 25922
[23] = system: Klebsiella pneumoniae ATCC 13883
[24] = system: Klebsiella pneumoniae ATCC 700603
[25] = system: Klebsiella pneumoniae ATCC BAA-2146
[26] = system: Klebsiella pneumoniae
[27] = system: Pseudomonas aeruginosa ATCC 27853
[28] = system: Staphylococcus aureus ATCC 43300
[29] = system: Aspergillus niger CECT 2694
[30] = system: Erwinia amylovora PMV 6076
[31] = system: Fusarium oxysporum f. sp. lycopersici ATCC 201829
[32] = system: Penicillium expansum EPS 26
[33] = system: Pseudomonas syringae EPS 94
[34] = system: Rhizopus stolonifer CECT 2344
[35] = system: Xanthomonas vesicatoria 2133-2
[36] = system: Escherichia coli K-12 594
[37] = system: Staphylococcus aureus ATCC 6538P
[38] = system: Staphylococcus aureus SR1550
[39] = system: Streptococcus gordonii ATCC 10558
[40] = system: Streptococcus mutans GS-5
[41] = system: Streptococcus mutans UA159
[42] = system: Streptococcus sanguinis ATCC 49295
[43] = system: Aeromonas hydrophila
[44] = system: Streptococcus pyogenes
[45] = system: Vibrio alginolyticus
[46] = system: Vibrio fluvialis
[47] = system: Vibrio parahaemolyticus

Structure (SMILES): CC[C@H](C)[C@H](NC(=O)[C@H](CCCCN)NC(=O)[C@H](CO)NC(=O)[C@H](Cc1ccccc1)NC(=O)[C@H](CC(C)C)NC(=O)[C@H](CCCCN)NC(=O)[C@H](CCC(=O)O)NC(=O)[C@H](CC(C)C)NC(=O)[C@H](CCCN=C(N)N)NC(=O)[C@H](CCCCN)NC(=O)[C@H](Cc1ccccc1)NC(=O)[C@@H](NC(=O)[C@H](CCCCN)NC(=O)[C@H](CCCCN)NC(=O)[C@H](C)N)C(C)C)C(=O)N[C@@H](Cc1ccc(O)cc1)C(=O)N[C@@H](CC(N)=O)C(=O)N[C@@H](Cc1ccc(O)cc1)C(=O)N[C@@H](CCCCN)C(N)=O [AKKVFKRLEKLFSKIYNYK]
MIC [1]: ≥ 50 µM
MIC [2]: ≥ 35.4 µM
MIC [3]: 1.56 µM (≈ 3.75 µg/mL)
MIC [4]: 6.25 µM (≈ 15 µg/mL)
MIC [5]: 12.5 µM (≈ 30 µg/mL)
MIC [6]: 3.13 µM (≈ 7.52 µg/mL)
MIC [7]: 3.13 µM (≈ 7.52 µg/mL)
MIC [8]: 12.5 µM (≈ 30 µg/mL)
MIC [9]: 0.78 µM (≈ 1.87 µg/mL)
MIC [10]: 4.42 µM (≈ 10.6 µg/mL)
MIC [11]: 3.13 µM (≈ 7.52 µg/mL)
MIC [12]: 25 µM (≈ 60.1 µg/mL)
MIC [13]: 0.39 µM (≈ 0.937 µg/mL)
MIC [14]: 3.13 µM (≈ 7.52 µg/mL)
MIC [15]: 3.13 µM (≈ 7.52 µg/mL)
MIC [16]: 1.56 µM (≈ 3.75 µg/mL)

Structure (SMILES): CC[C@H](C)[C@@H]1NC(=O)CNC(=O)[C@H](CCCN=C(N)N)NC(=O)[C@H](Cc2ccc(O)cc2)NC(=O)[C@H](C)NC(=O)[C@H](C(C)C)NC(=O)[C@H](CCCN=C(N)N)NC(=O)[C@H](Cc2ccccc2)NC(=O)[C@@H](NC(=O)[C@H](Cc2c[nH]c3ccccc23)NC(=O)[C@@H](N)CCCCN)CSSC[C@@H](C(=O)N[C@@H](CCCN=C(N)N)C(=O)O)NC(=O)[C@H](CCCN=C(N)N)NC(=O)[C@H](CCCN=C(N)N)NC(=O)[C@H](Cc2ccc(O)cc2)NC(=O)[C@H](C)NC1=O [KWCFRVAYRGIAYRRCR]
MIC [17]: 0.113 µM (≈ 0.25 µg/mL)
MIC [18]: 0.113 µM (≈ 0.25 µg/mL)
MIC [19]: 0.0567 µM (≈ 0.125 µg/mL)
MIC [20]: 3.63 µM (≈ 7.99 µg/mL)
MIC [21]: 0.454 µM (≈ 0.999 µg/mL)
MIC [22]: 0.0567 µM (≈ 0.125 µg/mL)
MIC [23]: 0.113 µM (≈ 0.25 µg/mL)
MIC [24]: 0.907 µM (≈ 2 µg/mL)
MIC [25]: 0.454 µM (≈ 0.999 µg/mL)
MIC [26]: 7.26 µM (≈ 16 µg/mL)
MIC [27]: 0.454 µM (≈ 0.999 µg/mL)
MIC [11]: 0.907 µM (≈ 2 µg/mL)
MIC [28]: 0.907 µM (≈ 2 µg/mL)

Structure (SMILES): CC[C@H](C)[C@H](NC(=O)[C@H](CCCCN)NC(=O)[C@H](CCCCN)NC(=O)[C@H](Cc1ccccc1)NC(=O)[C@H](CC(C)C)NC(=O)[C@H](CCCCN)NC(=O)[C@@H](N)CC(C)C)C(=O)N[C@@H](CC(C)C)C(=O)N[C@@H](CCCCN)C(=O)N[C@H](C(=O)N[C@@H](CC(C)C)C(N)=O)C(C)C [LKLFKKILKVL]
MIC [29]: 22.4 µM (≈ 30 µg/mL)
MIC [30]: 5.92 µM (≈ 7.94 µg/mL)
MIC [31]: 0.424 µM (≈ 0.569 µg/mL)
MIC [32]: ≥ 35.4 µM
MIC [33]: 5.92 µM (≈ 7.94 µg/mL)
MIC [34]: ≥ 35.4 µM
MIC [35]: 11 µM (≈ 14.7 µg/mL)

Now from value to compound, other results behind:

MIC [36]: 24.4 µM (≈ 35 µg/mL)
MIC [37]: 1.39 µM (≈ 2 µg/mL)
MIC [38]: 24.4 µM (≈ 35 µg/mL)
Structure (SMILES): CC(C)C[C@H](NC(=O)[C@H](CCCN=C(N)N)NC(=O)[C@H](CC(C)C)NC(=O)[C@H](CC(C)C)NC(=O)[C@H](CC(C)C)NC(=O)[C@H](CC(C)C)NC(=O)[C@H](CC(C)C)NC(=O)[C@H](CCCN=C(N)N)NC(=O)[C@H](CC(C)C)NC(=O)[C@@H](N)CCCN=C(N)N)C(=O)N[C@@H](CCCN=C(N)N)C(N)=O [RLRLLLLLRLR]

MIC [39]: ≥ 178 µM
MIC [40]: ≥ 178 µM
MIC [41]: ≥ 178 µM
MIC [42]: ≥ 178 µM
Structure (SMILES): CC(C)C[C@H](NC(=O)[C@H](CCCN=C(N)N)NC(=O)[C@H](Cc1ccccc1)NC(=O)[C@H](Cc1ccccc1)NC(=O)[C@@H](N)[C@@H](C)O)C(=O)N[C@@H](Cc1ccccc1)C(=O)N[C@@H](CC(N)=O)C(=O)N[C@@H](CCCN=C(N)N)C(=O)N[C@@H](CO)C(=O)N[C@@H](Cc1ccccc1)C(=O)N[C@H](C(=O)O)[C@@H](C)O [TFFRLFNRSFT]

MIC [43]: 8.23 µM (≈ 15.6 µg/mL)
MIC [7]: 4.12 µM (≈ 7.8 µg/mL)
MIC [14]: > 132 µM
MIC [44]: ≥ 33 µM
MIC [45]: ≥ 132 µM
MIC [46]: ≥ 132 µM
Structure (SMILES): CC[C@H](C)[C@H](NC(=O)[C@H](CC(N)=O)NC(=O)[C@H](CC(=O)O)NC(=O)[C@H](Cc1ccc(O)cc1)NC(=O)[C@@H](NC(=O)[C@H](CCCCN)NC(=O)[C@H](Cc1cnc[nH]1)NC(=O)[C@H](CC(C)C)NC(=O)[C@H](CC(C)C)NC(=O)[C@H](Cc1ccccc1)NC(=O)[C@H](CC(N)=O)NC(=O)[C@@H](N)C(C)C)[C@@H](C)CC)C(=O)N[C@@H](CCCN=C(N)N)C(=O)N[C@@H](Cc1ccc(O)cc1)C(=O)N[C@@H](CO)C(=O)O [VNFLLHKIYDNIRYS]
MIC [47]: ≥ 33 µM
